Assay results reported in patent US9549964B2, “Diagnosis, prognosis, and treatment of kidney disease” (Beth Israel Deaconess Medical Center, Inc., priority 2011, dated 2017).
Residues, ends and D or L forms follow the SMILES beside them.

Columns and labels:
[1] = tested on: human serum albumin; assay: Prevention of albumin carbamylation by cyanate in the presence of competing nucleophiles (% C-Alb by LC-MS); details: 10 mM scavenger, 0.25 mM cyanate, 37° C., 14 hours; for % CarbAlb Average +/− SD / % Decrease compared to no inhibitor: human serum albumin 4 mg/ml
Procedure: The pH of each was adjusted to pH 7.4 using HCl. HSA (4 mg/mL) was added to each amino acid solution, and then mixed 1:1 with 0.5 mM potassium cyanate in 100 mM potassium phosphate pH 7.4 (0.25 mM cyanate final concentration). […] Desalted albumin was then denatured and digested for analysis as described above.
To this, we added 0.25 mM cyanate, incubated at 37° C. for 14 hours, and analyzed for % C-Alb thereafter (Table 11).

[2] = Cyanate titration of an equimolar amino acid mixture (susceptibility of amino acids to carbamylation); details: increasing cyanate, physiological buffer pH 7.4, overnight 37° C.
Procedure: Carbamylation titration experiments were performed using an amino acid standard mix from Sigma Aldrich (Cat. No. AAS18) supplemented with tryptophan, cysteine, and glutamine; all amino acids were equimolar (2.5 mM stock). The 0.1 N HCl in the standard solution was neutralized with ammonium hydroxide and removed by lyophilization, and the dried amino acids were diluted to final concentration of 50 μM (each) in 100 mM potassium phosphate pH 7.4. […] Carbamylation was halted with addition of 1 M HCl, and excess cyanate and HCl were removed by vacuum lyophilization at room temperature. Isotopic standards were then mixed with the reactions, the tube were re-lyophilized, and amino acid mixtures were then S-alkylated with iodoacetamide, butylated with butanolic HCl, and analyzed using methods similar to those described for serum amino acids.
To differentiate the isocyanate-scavenging ability of individual amino acids, we added increasing concentrations of cyanate to an equimolar mixture of all twenty amino acids in a physiological buffer. As expected, increasing concentration of cyanate produced linear increases of all carbamylated amino acids and depletion of their unmodified forms (FIGS. 9A and 9B). From the titration curves, we calculated the cyanate concentration at which 10% unmodified amino acid forms were depleted.

SMILES	% CarbAlb Average +/− SD [1] [%]	Susceptibility to carbamylation / cyanate binding (in words) [2]	% Decrease compared to no inhibitor [1] [%]	Prevention of C-Alb formation / cyanate scavenging (in words) [1]
N[C@@H](CCC(=O)N[C@@H](CS)C(=O)NCC(=O)O)C(=O)O [Glutathione]	29 ± 1.4	–	–	–
NCCCC[C@H](N)C(=O)O [Lysine]	31 ± 0.9	did not avidly bind cyanate	21	–
NCC(=O)O [Glycine]	31 ± 1.8	–	–	–
CC(C)[C@H](N)C(=O)O [Valine]	33 ± 1.1	–	16	–
N[C@@H](CCC(=O)O)C(=O)O [Glutamate]	38 ± 1.2	–	3	–
NCCS(=O)(=O)O [Taurine]	22 ± 1.7	–	–	effectively scavenged cyanate
N[C@@H](Cc1c[nH]c2ccccc12)C(=O)O [Tryptophan]	32 ± 2.7	–	–	–
CC(C)C[C@H](N)C(=O)O [Leucine]	37 ± 2.2	–	–	–
C[C@H](N)C(=O)O [Alanine]	32 ± 1.7	–	–	–
NCC(=O)NCC(=O)O [Glycylglycine] (H-Gly-Gly-OH)	–	more strongly carbamylated than glycine or other amino acids	–	–
NC(=O)CC[C@H](N)C(=O)O [Glutamine]	32 ± 2.9	–	–	–
N[C@@H](CS)C(=O)O [Cysteine]	23 ± 1.9	very high cyanate binding avidity by the free thiol group	–	prevented C-Alb formation
O=C(O)[C@@H]1CCCN1 [Proline]	34 ± 1.6	–	–	–
N=C(N)NCCC[C@H](N)C(=O)O [Arginine]	27 ± 1.6	prone to carbamylation at low cyanate concentrations	–	–
N[C@@H](Cc1c[nH]cn1)C(=O)O [Histidine]	26 ± 1.0	prone to carbamylation at low cyanate concentrations	–	–
